Results: ChEMBL document CHEMBL4831556, “Discovery of a Novel Potent and Selective Calcium Release-Activated Calcium Channel Inhibitor: 2,6-Difluoro-N-(2'-methyl-3'-(4-methyl-5-oxo-4,5-dihydro-1,3,4-oxadiazol-2-yl)-[1,1'-biphenyl]-4-yl)benzamide. Structure-Activity Relationship and Preclinical Characterization” (J Med Chem, 2021)

Tests used:
[1] = Clearance in Lewis rat at 1 mg/kg, iv measured upto 24 hrs by LC-MS/MS analysis; assay type: ADME, organism-based; conditions: in vivo
Cytochrome P450 2E1 = Cytochrome P450 2E1 (Homo sapiens, UniProt P05181); experiment: Inhibition of CYP2E1 in human liver microsomes at 10 uM by LC-MS/MS analysis; assay type: ADME
Cytochrome P450 2E1, sequence (P05181 whole entry): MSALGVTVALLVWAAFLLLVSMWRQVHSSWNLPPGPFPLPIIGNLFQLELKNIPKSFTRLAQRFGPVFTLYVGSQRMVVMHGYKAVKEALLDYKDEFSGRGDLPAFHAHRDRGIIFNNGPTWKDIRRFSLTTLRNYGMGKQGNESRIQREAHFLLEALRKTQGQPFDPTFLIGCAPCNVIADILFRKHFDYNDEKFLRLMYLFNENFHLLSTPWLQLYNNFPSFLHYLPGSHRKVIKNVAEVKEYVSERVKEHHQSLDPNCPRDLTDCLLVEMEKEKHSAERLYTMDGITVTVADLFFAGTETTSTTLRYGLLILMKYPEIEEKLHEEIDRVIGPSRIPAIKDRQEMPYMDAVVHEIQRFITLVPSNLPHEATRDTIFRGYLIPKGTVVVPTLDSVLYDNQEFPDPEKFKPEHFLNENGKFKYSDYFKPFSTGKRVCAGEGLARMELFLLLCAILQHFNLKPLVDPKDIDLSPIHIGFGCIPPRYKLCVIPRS

[2] = AUClast in Lewis rat at 1 mg/kg, iv measured upto 24 hrs by LC-MS/MS analysis; assay type: ADME, organism-based; design: route intravenous, dose 1 mg/kg, time <=24; conditions: in vivo
[3] = Tmax in Lewis rat at 10 mg/kg, po measured upto 24 hrs by LC-MS/MS analysis; assay type: ADME, organism-based; conditions: in vivo
[4] = Tmax in Lewis rat at 1 mg/kg, iv measured upto 24 hrs by LC-MS/MS analysis; assay type: ADME, organism-based; conditions: in vivo
[5] = Metabolic stability in mouse liver microsomes preincubated for 5 mins followed by NADPH addition and measured upto 30 mins by LC-MS/MS analysis; assay type: ADME, Microsome; conditions: 0.5 h, time <=35 min
Cytochrome P450 3A4 = Cytochrome P450 3A4 (Homo sapiens, UniProt P08684); experiment: Inhibition of CYP3A4 in human liver microsomes at 10 uM by LC-MS/MS analysis; assay type: ADME
Cytochrome P450 3A4, sequence (P08684 whole entry): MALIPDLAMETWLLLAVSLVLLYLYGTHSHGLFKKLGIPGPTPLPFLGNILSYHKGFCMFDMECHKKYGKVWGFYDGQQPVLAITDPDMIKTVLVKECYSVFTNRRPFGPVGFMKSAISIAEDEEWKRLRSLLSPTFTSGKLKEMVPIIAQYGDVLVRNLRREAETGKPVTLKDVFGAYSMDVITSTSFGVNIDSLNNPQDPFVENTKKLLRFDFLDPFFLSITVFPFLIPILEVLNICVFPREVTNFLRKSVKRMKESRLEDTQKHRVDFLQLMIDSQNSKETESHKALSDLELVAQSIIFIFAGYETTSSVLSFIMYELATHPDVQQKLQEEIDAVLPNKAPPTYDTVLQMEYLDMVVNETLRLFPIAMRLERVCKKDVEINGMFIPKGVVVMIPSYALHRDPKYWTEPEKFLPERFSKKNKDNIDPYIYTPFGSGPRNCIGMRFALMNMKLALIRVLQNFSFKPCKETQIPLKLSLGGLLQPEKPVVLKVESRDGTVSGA

[6] = Volume of distribution at steady state in Lewis rat at 1 mg/kg, iv measured upto 24 hrs by LC-MS/MS analysis; assay type: ADME, organism-based; conditions: in vivo, read-out: Vdss
[7] = Half life in Lewis rat at 1 mg/kg, iv measured upto 24 hrs by LC-MS/MS analysis; assay type: ADME, organism-based; conditions: in vivo
[8] = Volume of distribution at steady state in BALB/c mouse at 1 mg/kg, iv measured upto 24 hrs by LC-MS/MS analysis; assay type: ADME, organism-based; conditions: in vivo, read-out: Vdss
[9] = Half life in BALB/c mouse at 10 mg/kg, po measured upto 24 hrs by LC-MS/MS analysis; assay type: ADME, organism-based; conditions: in vivo
[10] = Oral bioavailability in Lewis rat at 10 mg/kg measured upto 24 hrs by LC-MS/MS analysis; assay type: ADME, organism-based; conditions: in vivo
[11] = Metabolic stability in human liver microsomes preincubated for 5 mins followed by NADPH addition and measured upto 30 mins by LC-MS/MS analysis; assay type: ADME, Microsome; conditions: 0.5 h, time <=35 min
Cytochrome P450 2C9 = Cytochrome P450 2C9 (Homo sapiens, UniProt P11712); experiment: Inhibition of CYP2C9 in human liver microsomes at 10 uM by LC-MS/MS analysis; assay type: ADME
Cytochrome P450 2C9, sequence (P11712 whole entry): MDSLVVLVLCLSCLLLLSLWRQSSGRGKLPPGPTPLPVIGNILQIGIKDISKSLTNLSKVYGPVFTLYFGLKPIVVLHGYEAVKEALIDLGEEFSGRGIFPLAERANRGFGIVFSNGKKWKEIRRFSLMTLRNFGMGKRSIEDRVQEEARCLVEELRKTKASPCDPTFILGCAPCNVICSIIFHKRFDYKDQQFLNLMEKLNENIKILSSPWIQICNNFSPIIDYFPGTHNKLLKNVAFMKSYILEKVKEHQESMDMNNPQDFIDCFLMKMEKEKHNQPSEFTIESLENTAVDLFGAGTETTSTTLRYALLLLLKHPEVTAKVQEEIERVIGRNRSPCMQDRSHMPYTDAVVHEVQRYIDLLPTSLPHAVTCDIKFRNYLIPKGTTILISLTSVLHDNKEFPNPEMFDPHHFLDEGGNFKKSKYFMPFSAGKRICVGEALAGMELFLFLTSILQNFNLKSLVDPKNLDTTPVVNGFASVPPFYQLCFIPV

[12] = Metabolic stability in monkey liver microsomes preincubated for 5 mins followed by NADPH addition and measured upto 30 mins by LC-MS/MS analysis; assay type: ADME, Macaca mulatta, Microsome; conditions: rhesus monkey, 0.5 h, time <=35 min
[13] = Cmax in BALB/c mouse at 1 mg/kg, iv measured upto 24 hrs by LC-MS/MS analysis; assay type: ADME, organism-based; design: route intravenous, dose 1 mg/kg, time <=24; conditions: in vivo
[14] = Tmax in BALB/c mouse at 1 mg/kg, iv measured upto 24 hrs by LC-MS/MS analysis; assay type: ADME, organism-based; conditions: in vivo
Cytochrome P450 1A2 = biological target: T1, Cytochrome P450 1A2 (Homo sapiens, UniProt P05177); experiment: Inhibition of CYP1A2 in human liver microsomes at 10 uM by LC-MS/MS analysis; assay type: ADME
T1 sequence (P05177 whole entry): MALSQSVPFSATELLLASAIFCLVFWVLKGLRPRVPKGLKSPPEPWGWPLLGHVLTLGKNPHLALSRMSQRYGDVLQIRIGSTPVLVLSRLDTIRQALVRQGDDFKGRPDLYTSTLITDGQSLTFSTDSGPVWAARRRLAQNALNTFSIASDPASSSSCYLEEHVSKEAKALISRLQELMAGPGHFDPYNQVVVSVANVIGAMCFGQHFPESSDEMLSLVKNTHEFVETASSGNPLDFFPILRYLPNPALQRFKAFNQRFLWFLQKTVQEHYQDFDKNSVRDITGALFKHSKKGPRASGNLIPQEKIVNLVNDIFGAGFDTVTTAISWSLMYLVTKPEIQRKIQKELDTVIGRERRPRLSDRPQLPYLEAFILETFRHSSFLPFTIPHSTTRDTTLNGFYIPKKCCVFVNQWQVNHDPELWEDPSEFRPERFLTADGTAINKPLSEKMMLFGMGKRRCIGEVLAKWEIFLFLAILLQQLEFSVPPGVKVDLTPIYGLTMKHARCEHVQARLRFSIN

Cytochrome P450 2A6 = biological target: T2, Cytochrome P450 2A6 (Homo sapiens, UniProt P11509); experiment: Inhibition of CYP2A6 in human liver microsomes at 10 uM by LC-MS/MS analysis; assay type: ADME
T2 sequence (P11509 whole entry): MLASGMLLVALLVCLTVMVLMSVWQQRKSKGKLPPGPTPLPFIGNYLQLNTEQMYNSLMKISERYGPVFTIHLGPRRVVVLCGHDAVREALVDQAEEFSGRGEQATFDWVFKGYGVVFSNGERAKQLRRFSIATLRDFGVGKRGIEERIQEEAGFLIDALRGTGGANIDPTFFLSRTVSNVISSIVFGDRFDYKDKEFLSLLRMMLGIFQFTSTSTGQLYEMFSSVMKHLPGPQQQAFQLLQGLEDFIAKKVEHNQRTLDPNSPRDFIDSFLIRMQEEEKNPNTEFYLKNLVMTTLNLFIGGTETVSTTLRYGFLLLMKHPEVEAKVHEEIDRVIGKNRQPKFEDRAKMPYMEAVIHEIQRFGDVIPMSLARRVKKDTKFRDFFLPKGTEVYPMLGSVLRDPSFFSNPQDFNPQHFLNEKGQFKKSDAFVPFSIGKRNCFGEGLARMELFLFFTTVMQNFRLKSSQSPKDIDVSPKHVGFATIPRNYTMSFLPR

[15] = Cmax in Lewis rat at 1 mg/kg, iv measured upto 24 hrs by LC-MS/MS analysis; assay type: ADME, organism-based; design: route intravenous, dose 1 mg/kg, time <=24; conditions: in vivo
[16] = Apparent permeability across basolateral to apical side in human Caco-2 cells at 5 uM measured upto 120 mins in orbital shaker; assay type: ADME, cell-based
[17] = AUClast in BALB/c mouse at 10 mg/kg, po measured upto 24 hrs by LC-MS/MS analysis; assay type: ADME, organism-based; design: route oral, dose 10 mg/kg, time <=24; conditions: in vivo
Cytochrome P450 2D6 = Cytochrome P450 2D6 (Homo sapiens, UniProt P10635); experiment: Inhibition of CYP2D6 in human liver microsomes at 10 uM by LC-MS/MS analysis; assay type: ADME
Cytochrome P450 2D6, sequence (P10635 whole entry): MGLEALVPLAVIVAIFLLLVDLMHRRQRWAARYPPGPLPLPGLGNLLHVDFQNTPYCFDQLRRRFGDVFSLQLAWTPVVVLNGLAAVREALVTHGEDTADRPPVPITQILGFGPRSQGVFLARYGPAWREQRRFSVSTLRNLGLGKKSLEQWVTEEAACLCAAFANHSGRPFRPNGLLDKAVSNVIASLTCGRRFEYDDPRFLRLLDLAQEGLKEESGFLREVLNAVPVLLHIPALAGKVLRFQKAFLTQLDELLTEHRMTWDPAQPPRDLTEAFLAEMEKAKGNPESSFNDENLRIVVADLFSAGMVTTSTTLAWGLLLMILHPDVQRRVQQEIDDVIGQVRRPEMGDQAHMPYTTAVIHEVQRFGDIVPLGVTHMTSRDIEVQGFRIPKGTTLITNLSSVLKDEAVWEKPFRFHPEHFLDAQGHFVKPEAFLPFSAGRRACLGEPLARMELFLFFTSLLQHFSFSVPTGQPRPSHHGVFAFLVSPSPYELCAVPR

[18] = Plasma protein binding; assay type: ADME, cell-free; conditions: read-out: PPB
[19] = Metabolic stability in rat liver microsomes preincubated for 5 mins followed by NADPH addition and measured upto 30 mins by LC-MS/MS analysis; assay type: ADME, Microsome; conditions: 0.5 h, time <=35 min
[20] = Cmax in Lewis rat at 10 mg/kg, po measured upto 24 hrs by LC-MS/MS analysis; assay type: ADME, organism-based; design: route oral, dose 10 mg/kg, time <=24; conditions: in vivo
[21] = Metabolic stability in dog liver microsomes preincubated for 5 mins followed by NADPH addition and measured upto 30 mins by LC-MS/MS analysis; assay type: ADME, Canis lupus familiaris, Microsome; conditions: 0.5 h, time <=35 min

Row | Compound | clearance [1] [mL/min/kg] | inhibition (INH) (Cytochrome P450 2E1) | AUC(0-t) at 24 h [2] [µM·h] | Tmax [3] [h] | Tmax [4] [min] | Stability [5] | inhibition (INH) (Cytochrome P450 3A4) | Vd [6] [L/kg] | half-life [7] [h] | Vd [8] [L/kg] | half-life [9] [h] | bioavailability [10] [%] | Stability [11] | inhibition (INH) (Cytochrome P450 2C9) | Stability [12] | Cmax [13] [µM] | Tmax [14] [min] | inhibition (INH) (Cytochrome P450 1A2) | inhibition (INH) (Cytochrome P450 2A6) | Cmax [15] [µM] | other results
1 | Cc1c(-c2ccc(NC(=O)c3c(F)cccc3F)cc2)cccc1-c1nn(C)c(=O)o1 | 0.9 | Not Active | 29 | 8 | 4.8 | Stable | Not Active | 1 | > 15 | 2.3 | 5.3 | 100 | Stable | Not Active | Stable | 4.2 | 4.8 | Not Active | Not Active | 4 | Papp B→A at 2 h, 5 µM [16]: 6.2 ×10⁻⁶ cm/s; AUC(0-t) at 24 h [17]: 56 µM·h; inhibition (INH) (Cytochrome P450 2D6): Not Active; fraction unbound [18]: 0.01; Stability [19]: Stable; Cmax [20]: 20 µM; Stability [21]: Stable
2 | Cc1c(-c2ccc(NC(=O)c3c(F)cccc3Cl)cc2)cccc1-c1nn(C)c(=O)o1 | 1 | Not Active | 28 | 2 | 4.8 | Stable | Not Active | 1 | 13 | 2.3 | 6 | 60 | Stable | Not Active | Stable | 4.3 | 4.8 | Not Active | Not Active | 5 | Papp B→A at 2 h, 5 µM [16]: 4.5 ×10⁻⁶ cm/s; AUC(0-t) at 24 h [17]: 44 µM·h; inhibition (INH) (Cytochrome P450 2D6): Not Active; fraction unbound [18]: 0.01; Stability [19]: Stable; Cmax [20]: 10 µM; Stability [21]: Stable
